Assay results reported in US20220218667A1, “DUAL INHIBITORS OF SOLUBLE EPOXIDE HYDROLASE AND METHODS OF USE THEREOF” (OROX Biosciences, Inc., priority 2019, published 2022).
Read-outs that look alike come from different tables or passages of the source. Marks after values point to notes of the source that are not given here.

Legend:
[1] = test system: C57BL/6 mice, bleomycin-induced fibrotic lung injury; assay: Example 2: therapeutic treatment in bleomycin-induced idiopathic pulmonary fibrosis mouse model; format: in vivo; conditions: OX1 60 mg/kg, Pirfenidone 100 mg/kg
Text: The purpose of this study is to induce fibrotic lung injury in mice via a single administration of a glycopeptide antibiotic, bleomycin, in order to evaluate the efficacy of dual sEH and COX-2 inhibitor OX-1 in treating and reducing the symptoms associated with idiopathic pulmonary fibrosis. Pirfenidone, standard of care for the treatment of idiopathic pulmonary fibrosis, was used as a reference compound.
Male C57BL/6 mice from Charles River Laboratories aging of 7-8 weeks and weighing around 18-22 g at the time of their enrollment were used in the study.
Doses of OX1 at 60 mg/kg, Pirfenidone at 100 mg/kg, and the disease inducer Bleomycin at 1.5 mg/kg were used. A dosing rate of 10 mL/kg (approximately 0.2 mL/mouse according to their body weight) of OX1 was administered orally once daily to the mice. The mice received OX1 at 60 mg/kg once daily. A dosing rate of 10 mL/kg (approximately 0.2 mL/mouse according to their body weight) of Pirfenidone solution was administered once daily to the mice of the groups receiving Pirfenidone orally at the dose of 100 mg/kg once daily. A single intratracheal instillation of approximately 50 μL (1.5 mg/kg with a dosing rate of 2.5 mL/kg in sterile 0.9% saline) of bleomycin solution was administered to all mice except the sham group on day 0. Animals in the Sham group received one intratracheal instillation of approximately 50 μL of 0.9% saline solution on Day 0 and returned to their respective cages.
Treatment with the vehicle or test articles were initiated and administered starting on day 7 to day 21 as scheduled and described in Table 1 above. All test articles, reference compound and vehicle were administered to animals orally once daily. Food and water were given ad libitum. Daily observations of the behavioral and general health status of the animals were done. Daily body weight was also measured.
Prior to physiological assessment, all mice were introduced to the plethysmograph chamber environment. After the acclimatization period, the functional respiratory parameters were assessed by the whole-body plethysmograph on Day 0 (before bleomycin instillation), 7, 14 and 21 post-bleomycin instillation. Each measurement was performed with a mouse placed alone in an unrestrained whole-body plethysmography chamber (Buxco Electronics Inc.) to measure respiratory functions. The functional respiratory parameters analyzed included; the respiratory rate, the PenH ([…]) and the inspiratory/expiratory time measurements.
On the surgery day (Day 21), the mice were anesthetized, instrumented and arterial blood oxygen saturation (SpO2) was recorded. Blood oxygen saturation was read off of the pulse oximeter (STARR Life Sciences MouseOx Plus system, Oakmont, Pa.) with the probe attached to the right thigh of the animal. The saturation values were measured in percentage (%). At the moment of the sacrifice, the mouse thoracic cavity was open to expose the lungs and all mice were euthanatized by exsanguination. The trachea was then connected to the cannula of a perfusion system. The left lung was clamped while 1.5 mL of cold PBS solution (3×500 μL) was injected by the trachea to perform a bronchoalveolar lavage fluid (BALF) on the right lobe of the lungs and was collected on ice for further analysis. The total cells count with cells differential, the cytokine levels including TNF-α, TGF-β, IL-4, IL-5 and IL-17a, the total protein content as well as the soluble collagen were assessed in the BALF samples. Once collected, 300 μL of the BALF was transferred in an EDTA tube, kept at 2-4° C. and shipped to Biovet Inc. for the total cells count with cells differential analysis. The remaining BALF sample was centrifuged at 1200 rpm for 10 minutes at 4° C. to remove cells. The supernatant was aliquots and frozen at−80° C. until analysis was performed. […]

[2] = test system: C57B/L6 mice exposed to bleomycin; assay: Example 1: prophylactic treatment of mice exposed to bleomycin (IPF model); format: in vivo, mouse; conditions: OX1, OX3, Nintedanib 30 mg/kg QD, Pirfenidone 100 mg/kg BID; for body weight course over 21 days: bleomycin mice, oral gavage day -1 to 20; for neutrophil migration into BALF / number of lymphocytes in BALF / total cell (leukocyte) count in BALF / increased collagen (fibrosis) score, trichrome / mean Ashcroft score (lung histology) / mean score for mixed peribronchiolar/perivascular inflammation: day 21; for neutrophil migration into BALF / number of lymphocytes in BALF / total cell (leukocyte) count in BALF: oral; for increased collagen (fibrosis) score, trichrome / mean Ashcroft score (lung histology) / mean score for mixed peribronchiolar/perivascular inflammation: compared to vehicle (Group 2)
Text: 4-(5-phenyl-3-{3-[3-(4-trifluoromethyl-phenyl)-ureido]-propyl}-pyrazol-1-yl)-benzenesulfonamide (PTUPB) [termed OX1] was compared to Pirfenidone, Nintedanib, and GSK225629415 [termed OX3] for treatment of IPF using an established model for IPF treating, which is prophylactic treatment of mice exposed to the chemotherapeutic agent bleomycin. […] Pirfenidone and Nintedanib are standard of care for the treatment of idiopathic pulmonary fibrosis and served as reference compounds in the experiment.
C57B/L6 mice were used in the experiments. When used, Bleomycin was administered intra-oropharyngeally, 1.5 U/kg, QD per established protocol. The test articles were dosed via oral gavage in 200 μL/day vehicle. The doses and formulations of test articles were selected based on the literature describing the lowest doses capable of eliciting pharmacological action.
Animals were dosed with the test articles (or vehicle) starting at day −1 to day 20. On day 1, daily doses of Bleomycin commenced in all but group 1 (negative control) which received the vehicle. On day 21, all animals were weighed and sacrificed. After lungs and bronco-alveolar lavage fluid (BALF) were harvested, they were prepared according to standard procedures for further analysis and histology. All animals were assessed twice a week for body weight and overall appearance. Efficacy endpoints measured in this study included lung weight, total leukocytes, and histology as determined by Mason's Trichrome stain and scored using a modified Ashcroft score.
The following parameters were measured in bronchoalveolar fluid (BALF): 1) soluble collagen and 2) differential leukocyte counts for different leukocyte populations.
After weighing and removal of BALF from the lungs, they were inflated and fixed using 10% neutral buffered formalin for histopathology analysis. Fifty-four formalin-fixed lung samples from mice were submitted to HistoTox Labs and were processed routinely. Two slides from each block were sectioned and stained with hematoxylin and eosin (H&E) or Masson's trichrome. Glass slides were evaluated with light microscopy by a board-certified veterinary pathologist. Lung sections were scored according to the modified Ashcroft scale.

[3] = test system: Human primary lung fibroblasts from IPF donors; assay: Fibroblast-to-Myofibroblast Transition (FMT) assay; format: cell-based; conditions: for IC50: Homo sapiens, Primary lung fibroblast, 1.25 ng/ml TGF-b1
Experimental: OX1 was evaluated in a primary cell-based Fibroblast-to-Myofibroblast Transition (FMT) assay; an in vitro assay relevant to idiopathic pulmonary fibrosis (TPF). Human primary lung fibroblasts from three (3) IPF donors (IPF06, IPF07, and IPF08) were triggered using 1.25 ng/ml TGF-b1 to induce FMT, one hour after application of compounds. OX1 and Nintedanib (approved drug for TPF) were applied in […] in semi-log dilutions with the top concentration at […] to construct eight (8)-point concentration response curve (CRC) in biological duplicates (ie. on two (2) different cell plates at on (1) occasion). SB525334 was used at […] in 0.1% DMSO as a positive validation control. The readouts at 72 hours were high content analysis (HCA) for aSMA expression and DAPI staining for nuclear count as measurement of potential cytotoxic effects.

[4] = lung histopathology day 21, mean
[5] = mean, BLM mice, oral once daily day 7 to 21

**Q.** Which results are given for `Cc1ccc(=O)n(-c2ccccc2)c1` [Pirfenidone]?
**A.** Eosinophils (cells) ([1]; BALF day 21, mean): 874 cells; Lymphocytes (cells) ([1]; BALF day 21, mean): 174517 cells; Macrophages (cells) ([1]; BALF day 21, mean): 204110 cells; Neutrophils (cells) ([1]; BALF day 21, mean): 6999 cells; Soluble collagen ([1]; BALF day 21, mean): 197.82 µg; Total BALF cytokines (pg) IL-4 ([1]; BALF day 21, mean): 0.00 pg; Total BALF cytokines (pg) IL-5 ([1]; BALF day 21, mean): 2.17 pg; Total BALF cytokines (pg) IL-6 ([1]; BALF day 21, mean): 11.98 pg; Total BALF cytokines (pg) IL-17 ([1]; BALF day 21, mean): 0.00 pg; Total BALF cytokines (pg) IP-10 ([1]; BALF day 21, mean): 15.24 pg; Total BALF cytokines (pg) LIF ([1]; BALF day 21, mean): 24.67 pg; Total BALF cytokines (pg) MIG ([1]; BALF day 21, mean): 8.58 pg; Total BALF cytokines (pg) TNFa ([1]; BALF day 21, mean): 0.00 pg; Total TGFβ ([1]; BALF day 21, mean): 472.64 pg; Total cell counts (cells) ([1]; BALF day 21, mean): 386500 cells; Percent Survival (%) ([1]; BLM mice, oral once daily day 7 to 21): 91.70%; Ashcroft score [1, 4]: 3.5 ††; Collagen content (%) [1, 4]: 5.91%; Pulmonary foci (%) [1, 4]: 7.46%; Body weight changes from day 0 (%) [1, 5]: 2.47%; Body weight changes from day 7 (%) [1, 5]: 6.49%; body weight course over 21 days [2]: sustained weight loss; neutrophil migration into BALF [2]: did not exhibit any effects; number of lymphocytes in BALF [2]: trend increasingly lower; total cell (leukocyte) count in BALF [2]: did not demonstrate the same level of reduction; increased collagen (fibrosis) score, trichrome [2]: slightly lower; mean Ashcroft score (lung histology) [2]: slightly lower; mean score for mixed peribronchiolar/perivascular inflammation [2]: similar

**Q.** With `COC(=O)c1ccc2c(c1)NC(=O)/C2=C(\Nc1ccc(N(C)C(=O)CN2CCN(C)CC2)cc1)c1ccccc1` [Nintedanib] as the compound, how does the “Loss of Nuclei” value ([3]; DAPI staining, nuclear count as measure of potential cytotoxic effects, 72 hours) read?
**A.** Yes

**Q.** And the IC50 ([3]; donor IPF06, readout at 72 hours, read-out: αSMA inhibition IC50 (μM), Patient Identifier IPF06)?
**A.** 0.6 µM

**Q.** And the IC50 ([3]; donor IPF07, readout at 72 hours, read-out: αSMA inhibition IC50 (μM), Patient Identifier IPF07)?
**A.** 0.6 µM

**Q.** What about the IC50 ([3]; donor IPF08, readout at 72 hours, read-out: αSMA inhibition IC50 (μM), Patient Identifier IPF08) of the same compound?
**A.** 0.4 µM

**Q.** And the IC50 ([3]; mean of three IPF donors, 72 hours, read-out: αSMA inhibition IC50 (μM), Mean)?
**A.** 0.5 µM

**Q.** And the “body weight course over 21 days” value [2]?
**A.** sustained weight loss

**Q.** What about the “neutrophil migration into BALF” value [2] of the same compound?
**A.** effective

**Q.** What about the “number of lymphocytes in BALF” value [2] of the same compound?
**A.** trend increasingly lower

**Q.** What about the “total cell (leukocyte) count in BALF” value [2] of the same compound?
**A.** largest reduction

**Q.** What about the “increased collagen (fibrosis) score, trichrome” value [2] of the same compound?
**A.** the highest

**Q.** What about the “mean Ashcroft score (lung histology)” value [2] of the same compound?
**A.** the highest

**Q.** And the “mean score for mixed peribronchiolar/perivascular inflammation” value [2]?
**A.** similar
